Laboratory results as given in the NIST ThermoML archive (doi:10.1007/s10765-007-0223-x).

Assay: xn = mol fraction of the nth substance listed
Details: 101 kPa, Liquid; for speed of sound: Single path-length method

COC(C)(C)C [2-methoxy-2-methylpropane] + c1ccccc1
Details | mass density, 288.15 K [kg/m3] | mass density, 290.65 K [kg/m3] | mass density, 293.15 K [kg/m3] | mass density, 295.65 K [kg/m3] | speed of sound, 288.15 K [m/s] | speed of sound, 290.65 K [m/s] | speed of sound, 293.15 K [m/s] | speed of sound, 295.65 K [m/s]
x1 = 0.052 | 874.712 | 872.067 | 869.419 | 866.766 | 1328.4 | 1316.5 | 1304.8 | 1293
x1 = 0.111 | 864.515 | 861.888 | 859.259 | 856.624 | 1309.5 | 1297.5 | 1285.9 | 1274.2
x1 = 0.202 | 849.416 | 846.799 | 844.19 | 841.573 | 1281.7 | 1269.6 | 1258 | 1246.3
x1 = 0.303 | 833.719 | 831.129 | 828.533 | 825.932 | 1252.5 | 1240.5 | 1228.9 | 1217.3
x1 = 0.397 | 819.912 | 817.328 | 814.742 | – | 1226.5 | 1214.4 | 1202.9 | 1191.3
x1 = 0.5 | 805.496 | 802.92 | 800.338 | – | 1199.1 | 1187.2 | 1175.6 | 1164
x1 = 0.596 | 792.712 | 790.137 | 787.557 | – | 1174.8 | 1163 | 1151.4 | 1139.8
x1 = 0.698 | 779.712 | 777.135 | 774.552 | – | 1149.4 | 1137.7 | 1126.2 | 1114.6
x1 = 0.791 | 768.503 | 765.921 | 763.334 | – | 1128.2 | 1116.4 | 1104.8 | 1093.1
x1 = 0.902 | 755.682 | 753.094 | 750.497 | – | 1103 | 1091.2 | 1079.6 | 1067.9
x1 = 0.95 | 750.294 | 747.701 | 745.1 | – | 1092.4 | 1080.6 | 1069 | 1057.2
x1 = 1 | 744.861 | 742.259 | 739.654 | – | 1083.4 | 1071.6 | 1060 | 1048.5
